Results on twelve molecules are retold here after patent US20040059104A1, “Nucleotide mimics and their prodrugs” (priority 2002, published 2004).

Read-outs that look alike come from different tables or passages of the source. A value given as a limit tells only on which side of the number the result lay.

Data set [1] is described as follows: Mammalian cell growth inhibition assay (MTT cytotoxicity). The data set is classed as cell-based, Human. The following applies: human; CCRF-CEM cells, 72 hr, MTT; read-out: Cytotoxicity IC50 (antiproliferative effect). Here is the method: (§1) The assays employed for determining the cytotoxicity of the nucleotide mimics of the present invention to mammalian cells are described below.
(§2) Human CCRF-CEM cells were obtained from American Tissue Culture Collection (ATCC) and grown according to ATCC specifications. […] CEM cells were grown at 37° C. in a 95% humidified environment and 5% CO2 atmosphere.
(§3) MTT is water soluble tetrazolin salt that is converted to an insoluble purple formazan by active mitochondrial dehydrogenases of living cells. […] Conversion of MTT into the insoluble formazan by non-treated control or treated cells was monitored at 540 nm.
(§4) CCRF-CEM cells (3×10^4) were plated in 96-well plates in RPMI media. The next day, cells were incubated with different concentrations (0-200 μM) of the nucleotide mimics of the present invention for 72 hr. Following treatment, MTT (2 mg/ml in PBS) dye was added to each well so that the final concentration was 0.5 mg/ml and then incubated for 4 hr at 37° C. Media and MTT dye were removed without disturbing the cells and 100% DMSO was added to dissolve the precipitate. After a 10 minute incubation at room temperature, the optical density values were measured at 540 nm, using the Spectra Max Plus plate reader. Survival was expressed as the percentage of viable cells in treated samples relative to non-treated control cells.

Another data set concerns CCRF-CEM cells. The data set is described as above. The data set is classed as cell-based, Human. As for the experimental part:
as §1, §2, §3, §4

The target of data set [2] is purified bovine brain tubulin. Nature of the data set: Assay for inhibition of microtubule (tubulin) polymerization. Type of data set: biochemical. To be noted: 50 μM GTP, 37° C.; read-out: Ki, Inhibition of Tubulin Polymerization by Nucleotide Mimics. As for the experimental part: The assays employed to measure the polymerization and stability of tubulin microtubule protein are described below. The effectiveness of the compounds of the present invention as modulators of tubulin microtubule protein dynamics was measured in the following assays.
This assay was used to measure the ability of the nucleotide mimics of the present invention to inhibit the polymerization of tubulin subunits and subsequent assembly of microtubule protein. This assay is a modification of a published procedure (Xu et al., “Interaction of Tubulin with Guanosine 5′-O-(1-Thiotriphosphate) Diastereoisomers: Specificity of the α-Phosphate Binding Region”, Biochemistry 1994, 33, 11884-90).
The compounds were tested at various concentrations up to 500 μM final concentration. Polymerization assays were performed in 96-well microplates (Costar), in assay buffer containing GTP and tubulin. The nucleotide mimics of the present invention were diluted in buffer and pipetted into the plate wells. Samples were kept on ice until the reactions were initiated by moving the plates into a 37° C. incubator. The polymerization reaction was allowed to proceed at 37° C. for 30 minutes, monitored at 340 nm using a microplate spectrophotometer with a temperature-controlled incubator (Molecular Devices, Sunnyvale, Calif.). Initial velocity data (mA min^−1) was collected and fit to the equations below.
The percentage of inhibition was calculated according to the following equation:
% Inhibition=[1−(mA min^−1 in test reaction−mA min^−1 in blank)/(mA min^−1 in control reaction−mA min^−1 in blank)]×100.
Each inhibitor was titrated over an appropriate range of concentrations, and inhibition constants were determined using the following equations:
v=Vm[S]/(Km(1+[I]/Ki)+[S])

The target of data set [3] is HIV reverse transcriptase (RT) (Human immunodeficiency virus type 1 group M subtype B, UniProt P04585). The following applies: assays using homopolymer templates; background statement; cited from earlier work.
In data set [4] the target is Ribonucleotide Reductase (RNR R1/R2) (Escherichia coli, UniProt P00452). Nature of the data set: Ribonucleotide Reductase inhibition assay (coupled NADPH oxidation). The data set is classed as biochemical. Here is the method: The assays employed to measure inhibition of Ribonucleotide Reductase (RNR) activity are described below. The effectiveness of the compounds of the present invention as inhibitors of RNR enzyme was determined using the following assays.
Ribonucleotide Reductase (RNR R1/R2), sequence (P69924 2-376): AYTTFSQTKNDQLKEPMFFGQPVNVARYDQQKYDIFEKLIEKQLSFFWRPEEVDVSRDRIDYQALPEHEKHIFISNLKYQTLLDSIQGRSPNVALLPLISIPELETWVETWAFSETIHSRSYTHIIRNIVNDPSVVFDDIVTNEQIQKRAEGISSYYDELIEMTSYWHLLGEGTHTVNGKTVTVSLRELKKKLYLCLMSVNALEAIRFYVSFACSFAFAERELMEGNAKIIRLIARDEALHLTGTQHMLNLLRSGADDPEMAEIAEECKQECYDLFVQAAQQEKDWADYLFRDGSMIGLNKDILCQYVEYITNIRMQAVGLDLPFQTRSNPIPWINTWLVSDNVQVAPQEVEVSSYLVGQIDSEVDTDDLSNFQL
Ribonucleotide Reductase (RNR R1/R2), sequence (P00452 whole entry): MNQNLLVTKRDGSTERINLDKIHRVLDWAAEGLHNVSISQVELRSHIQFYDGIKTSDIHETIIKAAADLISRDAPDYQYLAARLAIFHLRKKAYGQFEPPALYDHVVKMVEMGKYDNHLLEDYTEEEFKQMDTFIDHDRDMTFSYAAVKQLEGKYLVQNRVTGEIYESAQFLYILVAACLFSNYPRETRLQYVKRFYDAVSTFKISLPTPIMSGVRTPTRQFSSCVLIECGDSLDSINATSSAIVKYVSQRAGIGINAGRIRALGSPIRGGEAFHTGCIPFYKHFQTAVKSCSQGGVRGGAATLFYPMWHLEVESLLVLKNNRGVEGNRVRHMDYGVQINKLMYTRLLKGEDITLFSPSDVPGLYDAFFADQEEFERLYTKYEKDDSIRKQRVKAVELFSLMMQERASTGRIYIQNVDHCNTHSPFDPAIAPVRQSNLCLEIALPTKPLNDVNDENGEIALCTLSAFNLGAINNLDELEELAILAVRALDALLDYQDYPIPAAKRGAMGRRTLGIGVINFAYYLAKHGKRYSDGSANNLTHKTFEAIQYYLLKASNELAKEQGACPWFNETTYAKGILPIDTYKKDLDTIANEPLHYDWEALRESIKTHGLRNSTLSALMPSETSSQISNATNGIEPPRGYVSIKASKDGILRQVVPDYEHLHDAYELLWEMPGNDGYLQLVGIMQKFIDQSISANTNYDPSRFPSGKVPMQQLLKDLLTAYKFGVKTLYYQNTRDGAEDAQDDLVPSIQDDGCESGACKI
This assay was used to measure the ability of the nucleotide mimics of the present invention to inhibit the enzymatic reaction catalyzed by RNR enzyme. In the reduction of cytidine 5′-diphosphate (CDP) to 2′-deoxycytidine 5′-diphosphate (dCDP), stoichiometric amounts of oxidized thioredoxin are formed. This protein is reduced by NADPH in a reaction catalyzed by thioredoxin reductase. By coupling the two reactions, RNR activity was measured by spectrophotometric determination of NADPH oxidation at 340 nm using a UV/VIS spectrophotometer. […]
The standard RNR assay is performed in a 96-well plate (Corning). […] The oxidation of NADPH was monitored at 340 nm on a microplate spectrophotometer (Molecular Devices Corp, Sunnyvale, Calif.). […]
The percentage of inhibition was calculated according to the following equation: […]
Each inhibitor was titrated over an appropriate range of concentrations, and IC50 values were determined using the equation: […]

A short description of data set [5]: in vitro. To be noted: bovine, serum, Half-Life, Serum Half-Lives of Gemcitibine Diphosphate Mimics and Their Prodrugs.
A further data set concerns Staphylococcus aureus. The data set is described as follows: Antimicrobial assay, minimal inhibitory concentration. The data set is classed as cell-based. The following applies: for MIC: Staphylococcus aureus, read-out: S. aureus MIC. In outline:
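E. coli and S. aureus grown overnight at 37° C were first screened by disc diffusion on Nutrient Broth agar lawns. MIC was then read after overnight incubation at 37° C as the lowest compound concentration giving no increase in absorbance at 600 nm.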

In another data set the test system is Escherichia coli. The description is as above. Type of data set: cell-based.
Data set [6] can be described thus: in vitro. To be noted: human.
For another data set, the system named is CEM-SS cells. The data set is described as follows: Compound toxicity in CEM-SS cells (MTS staining). The following applies: read-out: CEM-SS TC50. Type of data set: cell-based. Here is the method: (§5) ollowing paper: Structure-Activity and Cross-Resistance unodeficiency Virus Type 1-Specific ckheit, Jr. et al., Antimicrobial Agents and s were evaluated in CEM-SS cell cultures V-1RF at an MOI of approximately 0.01. At he soluble tetrazolium-based dye MTS viability and quantify compound toxicity of metabolically active cells to yield a soluble analysis of cell viability and compound
(§6) At assay termination, the assay plates were stained with the soluble tetrazolium-based dye MTS (CellTiter Reagent Promega) to determine cell viability and quantify compound toxicity. MTS is metabolized by the mitochondrial enzymes of metabolically active cells to yield a soluble formazan product, allowing the rapid quantitative analysis of cell viability and compound cytotoxicity. […] At termination of the assay, 20 μL of MTS reagent was added per well. The microtiter plates were then incubated 4-6 hrs at 37° C. for the HIV cytoprotection assay; the incubation intervals were chosen based on empirically determined times for optimal dye reduction. Adhesive plate sealers were used in place of the lids, the sealed plate was inverted several times to mix the soluble formazan product and the plate was read spectrophotometrically at 490 nm with a Molecular Devices Vmax plate reader.

In a further data set the test system is HIV-1RF. The data set is described as follows: Anti-HIV-1 cytoprotection assay in CEM-SS cells. The data set is classed as cell-based. The following applies: CEM-SS cells infected with HIV-1RF, MOI approximately 0.01, 6 days, MTS; read-out: CEM-SS IC50 (Anti-HIV Screening). Here is the method:
as §5
Efficacy Evaluation in CEM-SS Cells Anti-HIV-1 Cytoprotection Assay
Cell Preparation—CEM-SS cells were passaged in T-75 flasks prior to use in the antiviral assay. On the day preceding the assay, the cells were split 1:2 to assure they were in an exponential growth phase at the time of infection. Total cell and viability quantification was performed using a hemacytometer and trypan blue exclusion. Cell viability was greater than 95% for the cells to be utilized in the assay. The cells were resuspended at 5×10^4 cells/ml in tissue culture medium and added to the drug-containing microtiter plates in a volume of 50 μl.
Virus Preparation—The virus used for these tests was the lymphocytropic virus strain HIV-1RF. This virus was obtained from the NIH AIDS Research and Reference Reagent Program and was grown in CEM-SS cells for the production of stock virus pools. For each assay, a pre-titered aliquot of virus was removed from the freezer (−80° C.) and allowed to thaw slowly to room temperature in a biological safety cabinet. The virus was resuspended and diluted into tissue culture medium such that the amount of virus added to each well in a volume of 50 μl was the amount determined to give between 85 to 95% cell killing at 6 days post-infection.
as §6

[7] abbreviates: overnight at 37° C., tested 0-200 μg/ml, NA = Not active.
Where [8] appears, read: value in brackets beside the μg/ml value.

For the molecule `Nc1ccn([C@@H]2O[C@H](CO)[C@@H](O)C2(F)F)c(=O)n1` [Gemcitabine, 2′-deoxy-2′,2′-difluorocytidine, reference compound], the IC50 (usually the point on the concentration scale where inhibition reaches its midpoint) at 72 h in data set [1] worked out at 0.035 µM.

For `CC(C)(C)C(=O)SCCOP(=O)(CP(=O)(OCCSC(=O)C(C)(C)C)OCC1OC(n2ccc(N)nc2=O)C(F)(F)C1O)OCCSC(=O)C(C)(C)C` (stereo not drawn) [Compound 77, 2′-deoxy-2′,2′-difluorocytidine 5′-tri-O—(S-pivaloyl-2-thioethyl)-α,β-methylenediphosphonate], the IC50 in the data set with CCRF-CEM cells was 0.1 µM.

As for `Nc1nc2c(ncn2[C@@H]2O[C@H](COP(=O)(O)OP(=O)(O)O)[C@@H](O)[C@H]2O)c(=O)[nH]1` [Guanosine 5′-diphosphate], the Ki (as a rule, the equilibrium dissociation constant of an inhibitor or competing ligand from its target) in data set [2] was found to be 15.3 µM.

As to D4T 5′-α-P-boranotriphosphate, the “Ki values, inhibition of HIV reverse transcriptase (RT)” value in data set [3] is on record as “low nM range”.

With `BP(=O)(OC[C@@H]1O[C@H](n2cc(C)c(=O)[nH]c2=O)C[C@H]1N=[N+]=[N-])OP(=O)(O)OP(=O)(O)O` (stereo partly drawn) [AZT 5′-α-P-boranotriphosphate], the “Ki values, inhibition of HIV reverse transcriptase (RT)” value in data set [3] is on record as “low nM range”.

`Nc1ccn([C@@H]2O[C@H](COP(=O)(O)CCP(=O)(O)O)[C@@H](O)C2(F)F)c(=O)n1` [Compound 81, 2′-Deoxy-2′,2′-difluorocytidine 5′-ethylenediphosphonate]: the Ki in data set [2] turned out to be 15.7 µM.

Consider `Nc1ccn([C@@H]2O[C@H](COP(=O)(O)NP(=O)(O)O)[C@@H](O)/C2=C\F)c(=O)n1` [Compound 3, 2′-Deoxy-(E)-2′-fluoromethylenecytidine 5′-imidodiphosphate], for which the IC50 in data set [4] (3-minute inactivation, then assay with 1 mM CDP, read-out: IC50, Inhibition of Ribonucleotide Reductase by Nucleotide Mimics) came out at 8.9 µM.

Consider `Nc1ccn([C@@H]2O[C@H](COP(=O)(O)NP(=O)(O)O)[C@@H](O)C2(F)F)c(=O)n1` [Compound 6, 2′-Deoxy-2′,2′-difluorocytidine 5′-imidodiphosphate], for which the half-life (as a rule, the time in which the quantity being followed falls by half) at 500 μM in “in vitro [5]” was 15 h. In data set [4], this molecule showed an IC50 of 12.6 µM.

Consider `Nc1ccn([C@@H]2O[C@H](COP(=O)(O)CP(=O)(O)O)[C@@H](O)C2(F)F)c(=O)n1` [Compound 5, 2′-Deoxy-2′,2′-difluorocytidine-5′-methylenediphosphonate], for which the MIC (usually the smallest concentration in the dilution series that meets the test's criterion for growth inhibition) was above 200 µg/mL in the data set with Staphylococcus aureus (setting [7]) and above 475 µM in the data set with Staphylococcus aureus (setting [8]). In the data set “in vitro [5]”, the half-life at 500 μM is above 48 h. Besides, the IC50 at 72 h in [1] came to 4.8 µM.

As to `Nc1nc2c(ncn2[C@@H]2O[C@H](COP(=O)(O)NP(=O)(O)O)[C@@H](O)[C@H]2O)c(=O)[nH]1` [Guanosine 5′-imidodiphosphate], in [2], the Ki came to 5.7 µM.

As to `Nc1ccn([C@@H]2O[C@H](COP(=O)(O)OP(=O)(O)O)[C@@H](O)C2=CF)c(=O)n1` [2′-Deoxy-2′-fluoromethylenecytidine 5′-diphosphate], the Ki in data set [2] came to 19.4 µM.

Take “3′-Azido-3′-deoxythymidine 5′-α-P-borano-β,γ-difluoromethylene-γ-O-palmityltriphosphate [Compound 41]”: the results for the “S. aureus MIC” value in the data set on Staphylococcus aureus (setting [7]) and in the data set on Staphylococcus aureus (setting [8]) were 5 to 10 µg/mL and “(6.5-13) μM”, respectively. The “E. coli MIC” value in the data set on Escherichia coli (setting [7]) is 25 to 50 µg/mL; in the data set with Escherichia coli (setting [8]) it was “(33-66) uM”. The “Half-Life, Cell Extract Half-Lives of AZT 5'-α-P-borano-β,γ-(difluoromethylene) triphosphate Prodrugs” value in “in vitro [6]” was above 48 h. For the same molecule, the CC50 in the data set on CEM-SS cells was 12 µM. Moreover, the IC50 in the data set on HIV-1RF was determined as 1.41 µM.
